Numbers after ± are expanded uncertainties.
Tests used:
[1] = cn = amount concentration of the nth substance listed, in mol/dm3; settings: 101 kPa, Liquid; for viscosity: Capillary tube (Ostwald / Ubbelohde) method; for mass density: Pycnometric method
[2] = mn = molality of the nth substance listed, in mol/kg; settings: 303.15 K, 101 kPa, Liquid, Linear variable-path acoustic interferometer
[3] = refractive index (Na D-line) (dimensionless); mn = molality of the nth substance listed, in mol/kg; settings: 303.15 K, 101 kPa, Liquid, Standard Abbe refractometry
[4] = refractive index (Na D-line) (dimensionless); wn = mass fraction of the nth substance listed; settings: 303.15 K, 101 kPa, Liquid, Standard Abbe refractometry
[5] = wn = mass fraction of the nth substance listed; settings: 101 kPa, Liquid; for viscosity: Capillary tube (Ostwald / Ubbelohde) method; for speed of sound: Linear variable-path acoustic interferometer; for mass density: Pycnometric method
[6] = refractive index (Na D-line) (dimensionless); settings: 303.15 K; 101.33 kPa; Liquid; Standard Abbe refractometry
[7] = 101 kPa, Liquid; for viscosity: Capillary tube (Ostwald / Ubbelohde) method; for mass density: Pycnometric method

CC(C)[C@@H]1CC[C@@H](C)C[C@H]1O [DL-menthol] + CC(C)O
[1]
Settings | mass density [kg/m3] | viscosity [mPa·s]
303.15 K, c1 = 0.025 | 777.6 ± 0.8 | 1.757 ± 0.022
303.15 K, c1 = 0.035 | 777.8 ± 0.8 | 1.761 ± 0.022
303.15 K, c1 = 0.045 | 778 ± 0.8 | 1.766 ± 0.022
303.15 K, c1 = 0.055 | 778.3 ± 0.8 | 1.771 ± 0.022
303.15 K, c1 = 0.075 | 778.8 ± 0.8 | 1.781 ± 0.022
303.15 K, c1 = 0.085 | 779.1 ± 0.8 | 1.785 ± 0.022
313.15 K, c1 = 0.0247 | 768.8 ± 0.8 | 1.34 ± 0.017
313.15 K, c1 = 0.0346 | 769 ± 0.8 | 1.344 ± 0.017
313.15 K, c1 = 0.0445 | 769.2 ± 0.8 | 1.349 ± 0.017
313.15 K, c1 = 0.0544 | 769.5 ± 0.8 | 1.355 ± 0.017
313.15 K, c1 = 0.0742 | 770 ± 0.8 | 1.364 ± 0.017
313.15 K, c1 = 0.084 | 770.3 ± 0.8 | 1.368 ± 0.017
323.15 K, c1 = 0.0243 | 756.4 ± 0.8 | 1.012 ± 0.013
323.15 K, c1 = 0.034 | 756.6 ± 0.8 | 1.017 ± 0.013
323.15 K, c1 = 0.0438 | 756.8 ± 0.8 | 1.022 ± 0.013
323.15 K, c1 = 0.0535 | 757.1 ± 0.8 | 1.026 ± 0.013
323.15 K, c1 = 0.073 | 757.7 ± 0.8 | 1.034 ± 0.013
323.15 K, c1 = 0.0827 | 758 ± 0.8 | 1.039 ± 0.013

Settings | refractive index, [3] | speed of sound, [2] [m/s]
m1 = 0.0323 | 1.3741 ± 0.0009 | 1135.7 ± 2.8
m1 = 0.0453 | 1.3744 ± 0.0009 | 1138.2 ± 2.8
m1 = 0.0584 | 1.3747 ± 0.0009 | 1141.2 ± 2.8
m1 = 0.0715 | 1.375 ± 0.0009 | 1144.4 ± 2.8
m1 = 0.0978 | 1.3755 ± 0.0009 | 1151.1 ± 2.8
m1 = 0.111 | 1.3757 ± 0.0009 | 1154.2 ± 2.8

COC(=O)c1ccccc1O [methyl 2-hydroxybenzoate] + CC(C)O
[4]
Settings | refractive index
w1 = 0.05 | 1.3791 ± 0.0005
w1 = 0.1 | 1.3852 ± 0.0005
w1 = 0.15 | 1.3912 ± 0.0005

[5]
Settings | mass density, 303.15 K [kg/m3] | mass density, 313.15 K [kg/m3] | mass density, 323.15 K [kg/m3] | speed of sound, 303.15 K [m/s] | viscosity, 303.15 K [mPa·s] | viscosity, 313.15 K [mPa·s] | viscosity, 323.15 K [mPa·s]
w1 = 0.05 | 790.9 ± 0.2 | 782.8 ± 0.3 | 770.3 ± 0.3 | 1146.8 ± 1.7 | 1.798 ± 0.011 | 1.379 ± 0.009 | 1.048 ± 0.007
w1 = 0.1 | 805.3 ± 0.2 | 794.3 ± 0.3 | 785.1 ± 0.3 | 1170.6 ± 1.8 | 1.846 ± 0.012 | 1.437 ± 0.0094 | 1.103 ± 0.0074
w1 = 0.15 | 822.4 ± 0.3 | 812 ± 0.3 | 799.3 ± 0.3 | 1197.7 ± 1.8 | 1.961 ± 0.013 | 1.56 ± 0.01 | 1.227 ± 0.0082

CC(C)O [propan-2-ol]
Settings | refractive index
[6] | 1.3736 ± 0.0005

[7]
Settings | mass density [kg/m3] | viscosity [mPa·s]
303.15 K | 777.1 ± 0.2 | 1.747 ± 0.011
313.15 K | 768.4 ± 0.2 | 1.33 ± 0.0086
323.15 K | 756 ± 0.3 | 1.003 ± 0.0067

Settings | speed of sound [m/s]
[7], 303.15 K, Linear variable-path acoustic interferometer | 1130.6 ± 1.7

CC(C)O [propan-2-ol] + COC(=O)c1ccccc1O
Settings | refractive index
[4], w2 = 0 | 1.3736 ± 0.0005

[5], w2 = 0
Settings | mass density [kg/m3] | speed of sound [m/s] | viscosity [mPa·s]
303.15 K | 777.1 ± 0.2 | 1130.6 ± 1.7 | 1.747 ± 0.011
313.15 K | 768.4 ± 0.2 | – | 1.33 ± 0.0086
323.15 K | 756 ± 0.3 | – | 1.003 ± 0.0067

Source: the NIST ThermoML archive (doi:10.1016/j.tca.2009.12.001)
